# Assay results reported in the supplement of paper PMC10307832.
# Columns and labels:
# Test in all cases: relative viability (nuclei count vs DMSO), 5 days (fraction); higher = more cells survive
# R406 + Tozasertib = compound: COc1cc(Nc2ncc(F)c(Nc3ccc4c(n3)NC(=O)C(C)(C)O4)n2)cc(OC)c1OC [R406] + Cc1cc(Nc2cc(N3CCN(C)CC3)nc(Sc3ccc(NC(=O)C4CC4)cc3)n2)n[nH]1 [Tozasertib] (partner 0.1 µM)
# Method in brief: (§1)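 After 5 days of treatment, lung cancer cells in 1536-well plates were fixed and stained in a single step (final 0.05% Triton X-100, 1% formaldehyde, 1 ug/ml Hoechst) and their nuclei counted on 4× images. Treatment had been applied by pin tool the day after seeding as one drug alone or as a fixed anchor-drug dose with five library-drug doses (not always all listed) in √10 steps. Relative viability is the nuclei count of treated wells divided by that of vehicle wells, and values are medians of duplicate plates.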
# R406 + AZD7762 = compound: COc1cc(Nc2ncc(F)c(Nc3ccc4c(n3)NC(=O)C(C)(C)O4)n2)cc(OC)c1OC [R406] + NC(=O)Nc1cc(-c2cccc(F)c2)sc1C(=O)N[C@H]1CCCNC1 [AZD7762] (partner 0.2 µM)
# Method in brief: as §1
# R406 + OSI-027 = compound: COc1cc(Nc2ncc(F)c(Nc3ccc4c(n3)NC(=O)C(C)(C)O4)n2)cc(OC)c1OC [R406] + COc1cccc2cc(-c3nc([C@H]4CC[C@H](C(=O)O)CC4)n4ncnc(N)c34)[nH]c12 [OSI-027] (partner 0.5 µM)
# Method in brief: as §1
# Daporinad + Alpelisib = compound: O=C(/C=C/c1cccnc1)NCCCCC1CCN(C(=O)c2ccccc2)CC1 [Daporinad] + Cc1nc(NC(=O)N2CCC[C@H]2C(N)=O)sc1-c1ccnc(C(C)(C)C(F)(F)F)c1 [Alpelisib] (partner 2 µM)
# Method in brief: as §1
Cell Line,relative viability (R406 + Tozasertib; first compound 0.08 µM),relative viability (R406 + Tozasertib; first compound 0.253 µM),relative viability (R406 + Tozasertib; first compound 0.8 µM),relative viability (R406 + Tozasertib; first compound 2.53 µM),relative viability (R406 + Tozasertib; first compound 8 µM),relative viability (R406 + AZD7762; first compound 0.08 µM),relative viability (R406 + AZD7762; first compound 0.253 µM),relative viability (R406 + AZD7762; first compound 0.8 µM),relative viability (R406 + AZD7762; first compound 2.53 µM),relative viability (R406 + AZD7762; first compound 8 µM),relative viability (R406 + OSI-027; first compound 0.08 µM),relative viability (R406 + OSI-027; first compound 0.253 µM),relative viability (R406 + OSI-027; first compound 0.8 µM),relative viability (R406 + OSI-027; first compound 2.53 µM),relative viability (R406 + OSI-027; first compound 8 µM),relative viability (Daporinad + Alpelisib; first compound 0.0005 µM),relative viability (Daporinad + Alpelisib; first compound 0.001581 µM),relative viability (Daporinad + Alpelisib; first compound 0.005 µM),relative viability (Daporinad + Alpelisib; first compound 0.01581 µM)
201T,1.02,1,0.986,0.939,0.523,0.615,0.685,0.664,0.762,0.836,0.974,0.762,0.705,0.683,0.517,0.983,1.05,1,0.987
A549,,,,,,,,,,,,,,,,0.764,0.804,0.879,0.572
A-427,0.254,0.223,0.188,0.185,0.169,0.832,0.795,0.86,0.663,0.43,0.568,0.523,0.508,0.245,0.238,0.948,1.15,1.04,0.852
ABC-1,0.167,0.16,0.162,0.158,0.14,0.912,0.769,0.865,0.858,0.669,0.554,0.477,0.531,0.341,0.304,1.21,1.18,0.969,0.989
BEN,0.522,0.478,0.499,0.569,0.543,0.816,0.814,0.796,0.828,0.523,0.291,0.299,0.286,0.298,0.281,0.924,0.979,1.08,1.27
CAL-12T,0.312,0.366,0.324,0.255,0.194,0.531,0.641,0.695,0.714,0.637,0.654,0.702,0.895,0.133,0.209,1.28,1.04,0.832,0.411
COR-L23,0.173,0.218,0.164,0.15,0.113,,,,,,0.704,0.794,0.995,0.527,0.397,0.891,1.01,0.691,0.183
COR-L 105,0.344,0.325,0.439,0.237,0.399,,,,,,0.659,0.612,0.752,0.405,0.235,1.14,1.02,1.12,1.06
Calu-6,,,,,,,,,,,,,,,,0.934,0.96,1.09,0.519
ChaGo-K-1,0.224,0.203,0.251,0.218,0.164,0.799,0.957,0.999,0.873,0.744,0.606,0.565,0.672,0.386,0.471,,,,
EBC-1,,,,,,,,,,,,,,,,0.761,0.901,0.935,0.859
EKVX,0.369,0.45,0.499,0.317,0.273,0.679,0.832,0.847,0.647,0.521,0.721,0.739,0.778,0.601,0.552,0.83,0.87,0.873,1.18
EMC-BAC-2,0.311,0.286,0.305,0.279,0.246,1.05,1.26,1.17,1.04,0.391,0.373,0.416,0.407,0.232,0.203,0.822,0.773,0.544,0.223
EPLC-272H,0.206,0.242,0.403,0.177,0.111,0.21,0.252,0.337,0.199,0.15,0.275,0.291,0.253,0.203,0.229,0.942,1.02,0.84,1.08
H3255,0.673,,0.782,0.604,0.603,0.923,0.983,0.823,0.774,0.747,0.569,,0.651,0.426,0.406,0.696,0.812,0.725,0.702
HARA,0.115,0.127,0.13,0.155,0.123,0.272,0.469,0.257,0.306,0.305,0.621,0.668,0.591,0.22,0.198,0.702,0.955,0.638,0.176
HCC-15,0.437,0.484,0.458,0.483,0.208,1.35,1.33,1.38,1.19,0.751,0.701,0.928,0.832,0.505,0.439,0.89,0.931,1.05,0.901
HCC-44,0.909,0.532,0.963,0.979,0.393,0.974,1.01,0.995,1.03,1.18,0.435,0.662,0.599,0.293,0.363,0.817,0.937,0.825,0.864
HCC-78,0.513,0.432,0.563,0.404,0.417,0.571,0.861,0.623,0.619,0.449,0.335,0.385,0.397,0.386,0.323,0.296,0.368,0.285,0.425
HCC-366,0.101,0.0718,0.133,0.0575,0.0313,0.269,0.294,0.368,0.267,0.243,0.938,1.02,1.04,0.0426,0.117,0.44,0.503,0.542,0.616
HCC-827,0.421,0.463,0.45,0.386,0.233,0.336,0.239,0.234,0.176,0.134,0.771,0.778,0.826,0.611,0.507,1.04,1.03,1.06,0.969
HOP-62,0.356,0.456,0.362,0.366,0.554,0.76,0.813,0.793,0.531,0.585,0.774,0.958,0.854,0.64,0.654,,1.3,1.11,0.481

Cell Line,relative viability (R406 + Tozasertib; first compound 0.08 µM),relative viability (R406 + Tozasertib; first compound 0.253 µM),relative viability (R406 + Tozasertib; first compound 0.8 µM),relative viability (R406 + Tozasertib; first compound 2.53 µM),relative viability (R406 + Tozasertib; first compound 8 µM),relative viability (R406 + AZD7762; first compound 0.08 µM),relative viability (R406 + AZD7762; first compound 0.253 µM),relative viability (R406 + AZD7762; first compound 0.8 µM),relative viability (R406 + AZD7762; first compound 2.53 µM),relative viability (R406 + AZD7762; first compound 8 µM),relative viability (R406 + OSI-027; first compound 0.08 µM),relative viability (R406 + OSI-027; first compound 0.253 µM),relative viability (R406 + OSI-027; first compound 0.8 µM),relative viability (R406 + OSI-027; first compound 2.53 µM),relative viability (R406 + OSI-027; first compound 8 µM),relative viability (Daporinad + Alpelisib; first compound 0.0005 µM),relative viability (Daporinad + Alpelisib; first compound 0.001581 µM),relative viability (Daporinad + Alpelisib; first compound 0.005 µM),relative viability (Daporinad + Alpelisib; first compound 0.01581 µM)
IA-LM,,,,,,,,,,,,,,,,0.865,0.983,0.967,0.58
LC-2-ad,0.509,0.482,0.368,0.422,0.351,0.856,0.898,0.89,0.827,0.343,0.872,0.878,0.838,0.504,0.34,0.858,0.983,0.938,0.837
LCLC-97TM1,0.217,0.318,0.209,0.216,0.226,0.207,0.313,0.327,0.164,0.219,0.461,0.586,0.618,0.221,0.215,0.295,0.268,0.248,0.257
NCI-H520,0.499,0.469,0.45,0.347,0.219,,,,,,0.243,0.302,0.336,0.25,0.188,0.967,0.546,0.196,0.166
NCI-H522,0.467,0.527,0.562,0.582,0.433,0.914,0.921,0.813,0.823,0.765,0.681,0.742,0.954,0.501,0.593,,,,
NCI-H661,0.337,0.322,0.32,0.348,0.324,,,,,,0.674,0.819,0.702,0.501,0.38,0.635,0.506,0.649,0.401
NCI-H1299,,,,,,,,,,,,,,,,1.15,1.06,1.04,1.1
NCI-H1563,,,,,,,,,,,0.736,0.734,0.831,0.638,0.543,0.956,0.923,0.723,0.914
NCI-H1648,,,0.498,0.608,0.639,0.719,0.618,0.67,0.554,0.633,,,0.255,0.249,0.28,,,,
NCI-H1650,0.394,0.449,0.461,0.164,0.185,,,,,,0.719,0.644,0.637,0.132,0.137,,,,
NCI-H1703,,,,,,0.144,0.137,0.115,0.105,0.112,,,,,,0.412,0.379,0.466,0.312
NCI-H1792,,,,,,0.75,0.615,0.908,0.283,0.378,0.642,0.772,0.784,0.37,0.378,0.715,0.761,0.339,0.752
NCI-H2009,0.816,0.848,0.716,0.627,0.311,,,,,,0.602,0.729,0.747,0.301,0.149,1.17,1.15,1.21,1.07
NCI-H2023,0.384,0.396,0.354,0.225,0.178,,,,,,0.413,0.464,0.488,0.134,0.0924,0.656,0.636,0.689,0.651
NCI-H2228,0.27,0.31,0.253,0.278,0.066,,,,,,0.529,0.574,0.867,0.138,0.163,0.744,0.87,0.702,0.898
NCI-H2342,0.494,0.644,0.491,0.469,0.479,0.505,0.53,0.476,0.433,0.392,0.536,0.569,0.653,0.61,0.513,,,,
SK-LU-1,0.301,0.318,0.363,0.256,0.106,,,,,,0.312,0.337,0.424,0.153,0.0841,0.933,1.22,1.47,1.06
SK-MES-1,0.916,0.942,0.914,0.719,0.377,,,,,,0.588,0.649,0.714,0.341,0.13,0.841,0.894,0.947,1.03
SW 900,0.49,0.584,0.459,0.515,0.44,0.536,0.814,0.787,0.232,0.146,0.649,0.874,0.75,0.113,0.247,,,,
SW 1573,0.179,0.233,0.22,0.175,0.0962,,,,,,0.603,0.783,0.869,0.493,0.224,0.615,0.788,0.938,0.69
UMC-11,0.203,0.207,0.205,0.25,0.185,,,,,,0.429,0.517,0.488,0.463,0.253,0.915,0.979,1.07,1.1
